Reference: patent US9975900B2, “Substituted imidazo[1,2-α]pyrazines for treating spinal muscular atrophy” (Hoffmann-La Roche Inc., priority 2014, dated 2018)
Structures can show the parent of a compound that is named as a salt.

Assays:
[1] = test system: full length SMN2 minigene mRNA (HEK293H cells stably transfected with the SMN2-A minigene construct); assay: RT-qPCR assay for SMN2 minigene pre-mRNA splicing in cultured cells; assay type: cell-based; conditions: Homo sapiens, HEK293-H, 24 hours, 7-point concentration curve, concentration giving 1.5-fold FL SMN2mini mRNA vs vehicle, read-out: EC1.5x minigene (EC1.5x concentration for production of full length SMN2 minigene mRNA)
Procedure: The reverse transcription-quantitative PCR-based (RT-qPCR) assay is used to quantify the level of the full length SMN2 minigene (referred to herein by the term “FL SMN2mini”) mRNA containing SMN2 exon 7 in a HEK293H cell line stably transfected with said minigene and treated with a test compound. Materials used and respective sources are listed below in Table 1.
The SMN2-A minigene construct was prepared as described in International Patent Application WO2009/151546A1 page 145 paragraph [00400] to page 147 paragraph [00412] (incl. FIG. 1 and FIG. 3 therein).
HEK293H cells stably transfected with the SMN2-A minigene construct (10,000 cells/well) are seeded in 200 μL of cell culture medium (DMEM plus 10% FBS, with 200 μg/mL hygromycin) in 96-well flat-bottom plates and the plate is immediately swirled to ensure proper dispersal of cells and the formation of an even monolayer of cells. Cells are allowed to attach for 6 hours. Test compounds are serially diluted 3.16-fold in 100% DMSO to generate a 7-point concentration curve. A solution of test compound (1 μL, 200× in DMSO) is added to each cell-containing well and the plate is incubated for 24 hours in a cell culture incubator (37° C., 5% CO2, 100% relative humidity). 2 replicates are prepared for each test compound concentration. The cells are then lysed in the Cells-To-Ct lysis buffer and the lysate is stored at −80° C.
Full length SMN2-A minigene and GAPDH mRNA are quantified using the primers and probes referenced in Table 2. Primer SMN Forward A (SEQ ID NO.1) hybridizes to a nucleotide sequence in exon 7 (nucleotide 22 to nucleotide 40), primer SMN Reverse A (SEQ ID NO.2) hybridizes to a nucleotide sequence in the coding sequence of Firefly luciferase, SMN Probe A (SEQ ID NO.3) hybridizes to a nucleotide sequence in exon 7 (nucleotide 50 to nucleotide 54) and exon 8 (nucleotide 1 to nucleotide 21). The combination of these three oligonucleotides detects only SMN1 or SMN2 minigenes (RT-qPCR) and will not detect endogenous SMN1 or SMN2 genes.
The SMN forward and reverse primers are used at final concentrations of 0.4 μM. The SMN probe is used at a final concentration of 0.15 μM. The GAPDH primers are used at final concentrations of 0.2 μM and the probe at 0.15 μM.
The SMN2-minigene GAPDH mix (15 μL total volume) is prepared by combining 7.5 of 2×RT-PCR buffer, 0.4 μL of 25×RT-PCR enzyme mix, 0.75 μL of 20× GAPDH primer-probe mix, […] of water, 2 μL of 10-fold diluted cell lysate, 0.06 μL of 100 μM SMN forward primer, 0.06 μL of 100 μM SMN reverse primer, and 0.225 μL of 100 μM SMN probe.
PCR is carried out at the following temperatures for the indicated time: Step 1: 48° C. (15 min); Step 2: 95° C. (10 min); Step 3: 95° C. (15 sec); Step 4: 60° C. (1 min); then repeat Steps 3 and 4 for a total of 40 cycles.
Each reaction mixture contains both SMN2-A minigene and GAPDH primers/probe sets (multiplex design), allowing simultaneous measurement of the levels of two transcripts.
The increase in the abundance of the FL SMN2mini mRNA relative to that in cells treated with vehicle control is determined from real-time PCR data using a modified ΔΔCt method (as described in Livak and Schmittgen, Methods, 2001, 25:402-8). The amplification efficiency E is calculated from the slope of the amplification curve for FL SMN2mini and GAPDH individually. The abundance of FL SMN2mini and GAPDH mRNA are then calculated as (1+E)^−Ct, where Ct is the threshold value for each amplicon. The abundance of FL SMN2mini mRNA is normalized to GAPDH mRNA abundance. The normalized FL SMN2mini mRNA abundance from test compound-treated samples is then divided by normalized FL SMN2mini mRNA abundance from vehicle-treated cells to determine the level of FL SMN2mini mRNA relative to vehicle control. […]

[2] = test system: SMN protein in SMA patient fibroblast cells (GM03813); assay: SMN protein assay (HTRF) in cultured cells; assay type: cell-based; conditions: Homo sapiens, SMA Type 1 patient fibroblasts, 48 hours; for EC (1.5-fold): 7-point concentration curve, concentration giving 1.5 times SMN protein vs vehicle, read-out: EC1.5x SMN protein (EC1.5x concentration for SMN protein expression); for maximal fold induction: fold increase relative to vehicle control, read-out: Max. fold increase of SMN protein
Procedure: The SMN HTRF (homogeneous time resolved fluorescence) assay is used to quantify the level of SMN protein in SMA patient fibroblast cells treated with test compounds. Materials used and respective sources are listed below in Table 4.
Cells are thawed and cultured in DMEM-10% FBS for 72 hours. Cells are trypsinized, counted and re-suspended to a concentration of 25,000 cells/mL in DMEM-10% FBS. The cell suspensions are plated at 5,000 cells per well in a 96 well microtiter plate and incubated for 3 to 5 hours. Test compounds are serially diluted 3.16-fold in 100% DMSO to generate a 7-point concentration curve. 1 μL of test compound solution is transferred to cell-containing wells and cells are incubated for 48 hours in a cell culture incubator (37° C., 5% CO2, 100% relative humidity). Triplicate samples are set up for each test compound concentration. After 48 hours, the supernatant is removed from the wells and 25 μL of the RIPA lysis buffer, containing protease inhibitors, is added to the wells and incubated with shaking at room temperature for 1 hour. 25 μL of the diluent is added and then 35 μL of the resulting lysate is transferred to a 384-well plate, where each well contains 5 μL of the antibody solution (1:100 dilution of anti-SMN d2 and anti-SMN cryptate in SMN reconstitution buffer). The plate is centrifuged for 1 minute to bring the solution to the bottom of the wells, then incubated overnight at room temperature. Fluorescence for each well of the plate at 665 nm and 620 nm is measured on an EnVision multilabel plate reader (Perkin-Elmer).
The normalized fluorescence signal is calculated for each sample, Blank and vehicle control well by dividing the signal at 665 nm by the signal at 620 nm. Normalizing the signal accounts for possible fluorescence quenching due to the matrix effect of the lysate. The ΔF value (a measurement of SMN protein abundance as a percent value) for each sample well is calculated by subtracting the normalized average fluorescence for the Blank control wells from the normalized fluorescence for each sample well, then dividing this difference by the normalized average fluorescence for the Blank control wells and multiplying the resulting value by 100. The ΔF value for each sample well represents the SMN protein abundance from test compound-treated samples. The ΔF value for each sample well is divided by the ΔF value for the vehicle control wells to calculate the fold increase in SMN protein abundance relative to the vehicle control. Table 5 provides EC1.5× concentrations for SMN protein expression that was obtained from the 7-point concentration data generated according to the above procedure for particular compounds of the present invention.
Table 6 provides the maximum fold increase of SMN protein that was obtained from the 7-point concentration data generated according to the above procedure for particular compounds of the present invention

CC[C@@H]1CN(c2ccc(C(=O)Nc3cn4cc(C)nc4c(C4CC4)n3)c(F)c2)CCN1 [Example 36, N-(8-cyclopropyl-2-methylimidazo[1,2-a]pyrazin-6-yl)-4-[(3R)-3-ethylpiperazin-1-yl]-2-fluorobenzamide hydrochloride]
EC (1.5-fold) [1]: 0.0534 µM
EC (1.5-fold) [2]: 1.09 µM
maximal fold induction [2]: 1.53

COc1cc(N2CC[C@@H](N3CCCC3)C2)ccc1C(=O)Nc1cn2cc(C)nc2cn1 [Example 39, 2-methoxy-N-(2-methylimidazo[1,2-a]pyrazin-6-yl)-4-[(3R)-3-pyrrolidin-1-ylpyrrolidin-1-yl]benzamide]
EC (1.5-fold) [1]: 0.118 µM
EC (1.5-fold) [2]: 0.379 µM
maximal fold induction [2]: 1.75

CCOc1cc(N2CCN3CCC[C@@H]3C2)ccc1C(=O)Nc1cn2cc(C)nc2cn1 [Example 6, 4-[(8aR)-3,4,6,7,8,8a-hexahydro-1H-pyrrolo[1,2-a]pyrazin-2-yl]-2-ethoxy-N-(2-methylimidazo[1,2-a]pyrazin-6-yl)benzamide]
EC (1.5-fold) [1]: 0.101 µM
EC (1.5-fold) [2]: 0.428 µM
maximal fold induction [2]: 1.71

Cc1cn2cc(NC(=O)c3ccc(N4CCN5CCC[C@H]5C4)cc3F)nc(C3CC3)c2n1 [Example 17, 4-[(8aS)-3,4,6,7,8,8a-hexahydro-1H-pyrrolo[1,2-a]pyrazin-2-yl]-N-(8-cyclopropyl-2-methylimidazo[1,2-a]pyrazin-6-yl)-2-fluorobenzamide]
EC (1.5-fold) [1]: 0.0338 µM
EC (1.5-fold) [2]: 1.7 µM
maximal fold induction [2]: 1.51

Cc1cn2cc(NC(=O)c3ccc(N4CCNC(C)(C)C4)cc3F)nc(C3CC3)c2n1 [Example 37, N-(8-cyclopropyl-2-methylimidazo[1,2-a]pyrazin-6-yl)-4-(3,3-dimethylpiperazin-1-yl)-2-fluorobenzamide hydrochloride]
EC (1.5-fold) [1]: 0.0317 µM
EC (1.5-fold) [2]: 0.287 µM
maximal fold induction [2]: 1.72

CC[C@@H]1CN(c2ccc(C(=O)Nc3cn4cc(C)nc4cn3)c(OC)n2)CCN1 [Example 46, 6-[(3R)-3-ethylpiperazin-1-yl]-2-methoxy-N-(2-methylimidazo[1,2-a]pyrazin-6-yl)pyridine-3-carboxamide hydrochloride]
EC (1.5-fold) [1]: 0.189 µM
EC (1.5-fold) [2]: 0.58 µM
maximal fold induction [2]: 1.67

Cc1cn2cc(NC(=O)c3cc(F)c(N4CCNC(C)C4)cc3F)ncc2n1 (stereo not drawn) [Example 29, 2,5-difluoro-N-(2-methylimidazo[1,2-a]pyrazin-6-yl)-4-(3-methylpiperazin-1-yl)benzamide hydrochloride]
EC (1.5-fold) [1]: 0.0852 µM
EC (1.5-fold) [2]: 0.495 µM
maximal fold induction [2]: 1.91

Cc1cn2cc(NC(=O)c3ccc(N4CCNC5(CC5)C4)cc3F)ncc2n1 [Example 26, 4-(4,7-diazaspiro[2.5]octan-7-yl)-2-fluoro-N-(2-methylimidazo[1,2-a]pyrazin-6-yl)benzamide hydrochloride]
EC (1.5-fold) [1]: 0.0596 µM
EC (1.5-fold) [2]: 1.61 µM
maximal fold induction [2]: 1.57

COc1nc(N2CCNCC2)ccc1C(=O)Nc1cn2cc(C)nc2cn1 [Example 47, 2-methoxy-N-(2-methylimidazo[1,2-a]pyrazin-6-yl)-6-piperazin-1-ylpyridine-3-carboxamide hydrochlorid]
EC (1.5-fold) [1]: 0.129 µM
EC (1.5-fold) [2]: 0.551 µM
maximal fold induction [2]: 1.64

Cc1cn2cc(NC(=O)c3ccc(N4CCN[C@H](C)C4)cc3F)ncc2n1 [Example 25, 2-fluoro-N-(2-methylimidazo[1,2-a]pyrazin-6-yl)-4-[(3R)-3-methylpiperazin-1-yl]benzamide hydrochloride]
EC (1.5-fold) [1]: 0.0146 µM
EC (1.5-fold) [2]: 0.123 µM
maximal fold induction [2]: 1.88

CCOc1cc(N2CCN3CCC[C@H]3C2)ccc1C(=O)Nc1cn2cc(C)nc2cn1 [Example 3, 4-[(8aS)-3,4,6,7,8,8a-hexahydro-1H-pyrrolo[1,2-a]pyrazin-2-yl]-2-ethoxy-N-(2-methylimidazo[1,2-a]pyrazin-6-yl)benzamide]
EC (1.5-fold) [1]: 0.102 µM
EC (1.5-fold) [2]: 0.409 µM
maximal fold induction [2]: 1.83

Cc1cn2cc(NC(=O)c3ccc(N4CCN5CCC[C@H]5C4)cc3F)ncc2n1 [Example 8, 4-[(8aS)-3,4,6,7,8,8a-hexahydro-1H-pyrrolo[1,2-a]pyrazin-2-yl]-2-fluoro-N-(2-methylimidazo[1,2-a]pyrazin-6-yl)benzamide]
EC (1.5-fold) [1]: 0.0407 µM
EC (1.5-fold) [2]: 0.351 µM
maximal fold induction [2]: 1.77

Cc1cn2cc(NC(=O)c3ccc(N4CCN5CCC[C@H]5C4)cc3F)nc(C)c2n1 [Example 13, 4-[(8aS)-3,4,6,7,8,8a-hexahydro-1H-pyrrolo[1,2-a]pyrazin-2-yl]-N-(2,8-dimethylimidazo[1,2-a]pyrazin-6-yl)-2-fluorobenzamide]
EC (1.5-fold) [1]: 0.0262 µM
EC (1.5-fold) [2]: 0.109 µM
maximal fold induction [2]: 1.66

Cc1cn2cc(NC(=O)c3ccc(N4C[C@@H](C)N[C@@H](C)C4)cc3F)ncc2n1 [Example 27, 4-[(3S,5R)-3,5-dimethylpiperazin-1-yl]-2-fluoro-N-(2-methylimidazo[1,2-a]pyrazin-6-yl)benzamide]
EC (1.5-fold) [1]: 0.0167 µM
EC (1.5-fold) [2]: 1.52 µM
maximal fold induction [2]: 1.85
